Measured values as given in patent US7829578B1, “Aromatic ketones and uses thereof” (Oregon Health & Science University, priority 2005, dated 2010).
Like-named read-outs stand apart in the source and are kept apart here.

Legend:
[1] = tested on: multi-drug resistant strains of Plasmodium falciparum (W2, Dd2, 7G8 and Tm93C1088); test: In vitro antimalarial activity against multi-drug resistant strains; assay type: cell-based; conditions: for IC50 values, stated in words: against multidrug resistant Plasmodium falciparum parasites; for IC50: Plasmodium falciparum
Method: (§1) Four different laboratory strains of P. falciparum were cultured in human erythrocytes by standard methods under a low oxygen atmosphere (5% O2, 5% CO2, 90% N2) in an environmental chamber. The culture medium was RPMI 1640, supplemented with 25 mM Hepes buffer, 25 mg/liter gentamicin sulfate, 45 mg/liter hypoxanthine, 10 mM glucose, 2 mM glutamine, and 0.5% Albumax II (complete medium). The parasites were maintained in fresh human erythrocytes suspended at a 2% hematocrit in complete medium at 37° C. Stock cultures were sub-passaged every 3 to 4 days by transfer of infected red cells to a flask containing complete medium and uninfected erythrocytes.
(§2) In vitro antimalarial activity of the test compounds was assessed by a fluorescence-based method described previously (Smilkstein et al., 2004, Antimicrobial Agents and Chemotherapy, Vol. 48, pgs. 1803-1806) (reference format?). The studies were set up in triplicate in 96 well plates with two-fold dilutions of each test compound across the plate in a total volume of 100 μl and at a final red blood cell concentration of 2% (v/v). Stock solutions of each drug were prepared by dissolving in DMSO at 10 mM. […] In every case, an additional determination was performed to ensure bracketing of the IC50 value by at least an order of magnitude.
(§3) Automated pipeting and dilution was carried out by a programmable Precision 2000 robotic station (Bio-Tek, Winooski, Vt.). An initial parasitemia of 0.2% was attained by addition of normal uninfected red cells to a stock culture of asynchronous parasite infected red cells (PRBC). The plates were incubated for 72 hrs at 37° C. in an atmosphere of 5% CO2, 5% O2, and 90% N2. After this period, the SyBrGreen I dye-detergent mixture (100 μl) was added and the plates were incubated at room temperature for an hour in the dark and then placed in a 96-well fluorescence plate reader (Gemini-EM, […]) for analysis with excitation and emission wavelength bands centered at 497 and 520 nm, respectively.

[2] = tested on: Plasmodium parasitized red blood cells; test: Oxygen consumption (respiration) by parasitized red blood cells (FIG. 3); assay type: cell-based; conditions: compared with atovaquone at equimolar concentrations
Description: While not intending to be limited to any mechanism of action, it is contemplated that some of the presently described compounds may act through inhibiting parasite growth through inhibition of the enzyme cytochrome b.

[3] = tested on: drug susceptible (D6) strain of Plasmodium falciparum; test: In vitro antimalarial MSF (SyBrGreen I fluorescence) assay, D6 strain; assay type: cell-based; conditions: for improvement of antimalarial potency by the QZ group: compared to IC50 of the parent compound without the QZ side chain
Method: as §1, §2, §3

[4] = tested on: multidrug resistant Dd2 strain of P. falciparum; test: Isobolar analysis of combination with clopidol in vitro (FIG. 4); assay type: cell-based, Plasmodium falciparum
Method: Values below the theoretical straight line of addition are considered to be indicative of synergism. This study was performed with the multidrug resistant Dd2 strain of P. falciparum.

[5] = tested on: multi-drug resistant strain (W2) of Plasmodium falciparum; test: In vitro antimalarial activity, W2 strain; assay type: cell-based; conditions: read-out: IC50 against multi-drug resistant strain (W2)
Method: as §1
In vitro antimalarial activity of the test compounds was assessed by a fluorescence-based method described previously (Smilkstein et al., 2004, Antimicrobial Agents and Chemotherapy, Vol. 48, pgs. 1803-1806) (reference format?). […]
Automated pipeting and dilution was carried out by a programmable Precision 2000 robotic station (Bio-Tek, Winooski, Vt.). […] After this period, the SyBrGreen I dye-detergent mixture (100 μl) was added and the plates were incubated at room temperature for an hour in the dark and then placed in a 96-well fluorescence plate reader (Gemini-EM, […]) for analysis with excitation and emission wavelength bands centered at 497 and 520 nm, respectively.

[6] = tested on: multi-drug resistant (Dd2) strain of Plasmodium falciparum; test: In vitro antimalarial MSF (SyBrGreen I fluorescence) assay, Dd2 strain; assay type: cell-based; conditions: Plasmodium falciparum, DD2, Table 3
Method: as §1, §2, §3

[7] = tested on: Murine splenic lymphocytes; test: MSLCs-concanavalin A induced proliferation (blastogenesis) cytotoxicity assay, Alamar Blue fluorescence; assay type: cell-based; conditions: Mus musculus, Splenic lymphocyte, Table 3, 48-hr MSLCs-concanavalin A induced proliferation
[8] = Plasmodium falciparum, D6, read-out: IC50 against drug sensitive (D6) strain

Compound: O=C1C=C(OCCCCC(F)(C(F)(F)F)C(F)(F)F)C(=O)c2ccccc21 [NAP 005, 2-(5,6,6,6-tetrafluoro-5-trifluoromethyl-hexyloxy)-[1,4]naphthoquinone]
- IC50 values, stated in words [1]: low nanomolar range
- inhibition of oxygen consumption (respiration) [2]: does not inhibit oxygen consumption

Compound: O=c1c2ccc(Cl)cc2[nH]c2cc(OCCCCCC(F)(F)F)ccc12 [No. 21, 3-(6,6,6-trifluorohexyloxy)-6-chloroacridone]
- IC50 [3, 8]: 0.16 nM
- improvement of antimalarial potency by the QZ group [3]: more than 10,000 fold
- IC50 [1]: 0.16 nM

Compound: COc1ccc2c(=O)c(CCCCCC(F)(F)F)c(C)[nH]c2c1 [No. 44, 2-methyl-3-(6,6,6-trifluorohexyl)-7-methoxy-4(1H)-quinolone]
- IC50 values, stated in words [1]: low nanomolar range
- inhibition of oxygen consumption (respiration) ([2]; listed as 2-methyl-3-(6,6,6-trifluorohexyl)-7-methoxy-4-quinolone): equivalent to atovaquone at equimolar concentrations

Compound: O=c1c2ccc(O)cc2oc2cc(OCCCCCC(F)(F)F)ccc12 [3-(6,6,6-trifluorohexyloxy)-6-hydroxyxanthone]
- IC50 [3, 8]: ~700 nM
- improvement of antimalarial potency by the QZ group [3]: more than 100 fold
- IC50 [1]: ~700 nM

Compound: COc1ccc2c(=O)c(CCCCCC(F)(F)F)c(C)[nH]c2c1 [2-methyl-3-(6,6,6-trifluorohexyl)-7-methoxy-4(1H)-quinolone]
- inhibition of oxygen consumption (respiration) [2]: inhibiting oxygen consumption by Plasmodium parasitized red blood cells in similar fashion to atovaquone
- interaction with clopidol [4]: acting in synergy with clopidol

Compound: COc1ccc2c(=O)c(CCCCCCCCCCC(F)(F)F)c(C)[nH]c2c1 [No. 45, 2-methyl-3-(11,11,11-trifluoro-undecy1)-7-methoxy-4(1H)-quinolone]
- improvement of antimalarial potency by the QZ group [3]: more than 1,000 fold
- IC50 ([3]; read-out: IC50 against drug sensitive (D6) strain): ~0.2 nM
- IC50 [5]: ~0.2 nM

Compound: O=C1C=C(OCCCCC(F)(F)F)C(=O)c2ccccc21 [No. 35, 2-(5,5,5-trifluoropentyloxy)-1,4-naphthoquinone]
- IC50 [3, 8]: ~133 nM
- improvement of antimalarial potency by the QZ group [3]: roughly 50 fold
- IC50 [1]: ~133 nM

Compound: COc1ccc2c(=O)cc(C)[nH]c2c1 [compound 43]
- IC50 ([3]; Plasmodium falciparum, D6, Table 3, MSF assay, read-out: D6 IC50): 7000 nM
- IC50 [6]: 13700 nM
- IC50 [7]: > 25000 nM
